Measured values reported in ChEMBL document CHEMBL3885861, “Open TG-GATES”.

Species: Rattus norvegicus
Test: Open TG-GATES - Regimen: Daily Repeat
Type: toxicity, organism-based, Sprague-Dawley
Set-up: regimen Daily Repeat, gender Male, age 6 weeks
Conditions: in vivo, po, 30 mg/kg, route gavage, dose level Low; for APTT / Bas / Eos / Fbg / Hb / Ht / Lym / MCH / MCHC / MCV / Mono / Neu / PT / Plat / RBC / Ret / WBC: tissue Blood; for KIDNEY_L / KIDNEY_R / KIDNEY_TOTAL: tissue Kidney; for LIVER: tissue Liver; for A/G / ALP / ALT / AST / BUN / CRE / Ca / Cl / DBIL / GLC / IP / K / LDH / Na / PL / RALB / TBIL / TC / TG / TP / gamma-GTP: tissue Plasma

`O=C(O)COc1nn(Cc2ccccc2)c2ccccc12` [BENDAZAC] showed a TERMINAL_BW (72 h, time 3 day) of 236.5 g, an APTT (72 h, time 3 day) of 17 s and a Bas (72 h, time 3 day) of 0%. It also gave an Eos (72 h, time 3 day) of 1.4%, a Fbg (72 h, time 3 day) of 215.2 mg/dL and a Hb (72 h, time 3 day) of 13.4 g/dL. The Ht (72 h, time 3 day) was 40.6%, the Lym (72 h, time 3 day) was 79.2% and the MCH (72 h, time 3 day) was 21.1 pg. For the same compound, the MCHC (72 h, time 3 day) was 33%, the MCV (72 h, time 3 day) was 63.9 fL and the Mono (72 h, time 3 day) was 6.6%. For the same compound, the Neu (72 h, time 3 day) was 12.8%, the PT (72 h, time 3 day) was 11.9 s and the Plat (72 h, time 3 day) was 128 x10_4/uL. It also gave an RBC (72 h, time 3 day) of 636 x10_4/ul, a Ret (72 h, time 3 day) of 6.9% and a WBC (72 h, time 3 day) of 98.4 x10_2/uL. For the same compound, the KIDNEY_L (72 h, time 3 day) was 1 g, the KIDNEY_R (72 h, time 3 day) was 1 g and the KIDNEY_TOTAL (72 h, time 3 day) was 2.1 g. The LIVER (72 h, time 3 day) was 11.9 g, the A/G (72 h, time 3 day) was 2.2 and the ALP (72 h, time 3 day) was 891 IU/L. The ALT (72 h, time 3 day) was 36.6 IU/L, the AST (72 h, time 3 day) was 66.6 IU/L and the BUN (72 h, time 3 day) was 17.2 mg/dL. It also gave a CRE (72 h, time 3 day) of 0.6 mg/dL, a Ca (72 h, time 3 day) of 11 mg/dL and a Cl (72 h, time 3 day) of 103 meq/L. The DBIL (72 h, time 3 day) was 0.018 mg/dL, the GLC (72 h, time 3 day) was 205.2 mg/dL and the IP (72 h, time 3 day) was 7.5 mg/dL. For the same compound, the K (72 h, time 3 day) was 4.5 meq/L, the LDH (72 h, time 3 day) was 128 IU/L and the Na (72 h, time 3 day) was 140.4 meq/L. For the same compound, the PL (72 h, time 3 day) was 149.8 mg/dL, the RALB (72 h, time 3 day) was 3.9 g/dL and the TBIL (72 h, time 3 day) was 0.4 mg/dL. The TC (72 h, time 3 day) was 74.4 mg/dL, the TG (72 h, time 3 day) was 99.6 mg/dL and the TP (72 h, time 3 day) was 5.7 g/dL. It also gave a gamma-GTP (72 h, time 3 day) of 0.8 IU/L, a TERMINAL_BW ([…], time 7 day) of 260.1 g and a TERMINAL_BW ([…], time 14 day) of 298.7 g. It also gave a TERMINAL_BW ([…], time 28 day) of 393.4 g, an APTT ([…], time 7 day) of 17.3 s and a Bas ([…], time 7 day) of 0%. For the same compound, the Eos ([…], time 7 day) was 1.2%, the Fbg ([…], time 7 day) was 214.6 mg/dL and the Hb ([…], time 7 day) was 14.1 g/dL. For the same compound, the Ht ([…], time 7 day) was 41.5%, the Lym ([…], time 7 day) was 78.4% and the MCH ([…], time 7 day) was 21.2 pg. For the same compound, the MCHC ([…], time 7 day) was 34%, the MCV ([…], time 7 day) was 62.4 fL and the Mono ([…], time 7 day) was 6.8%. It also gave a Neu ([…], time 7 day) of 14%, a PT ([…], time 7 day) of 11.7 s and a Plat ([…], time 7 day) of 131.9 x10_4/uL. The RBC ([…], time 7 day) was 665.6 x10_4/ul, the Ret ([…], time 7 day) was 6.1% and the WBC ([…], time 7 day) was 109.2 x10_2/uL. For the same compound, the APTT ([…], time 14 day) was 17.1 s, the Bas ([…], time 14 day) was 0% and the Eos ([…], time 14 day) was 0.6%. It also gave a Fbg ([…], time 14 day) of 228.2 mg/dL, a Hb ([…], time 14 day) of 14.9 g/dL and a Ht ([…], time 14 day) of 44%. It also gave a Lym ([…], time 14 day) of 85.2%, an MCH ([…], time 14 day) of 20.6 pg and an MCHC ([…], time 14 day) of 33.8%. The MCV ([…], time 14 day) was 61 fL, the Mono ([…], time 14 day) was 3.4% and the Neu ([…], time 14 day) was 10.4%. For the same compound, the PT ([…], time 14 day) was 11 s, the Plat ([…], time 14 day) was 121.3 x10_4/uL and the RBC ([…], time 14 day) was 720.6 x10_4/ul. For the same compound, the Ret ([…], time 14 day) was 2.8%, the WBC ([…], time 14 day) was 112.1 x10_2/uL and the APTT ([…], time 28 day) was 17.2 s. For the same compound, the Bas ([…], time 28 day) was 0%, the Eos ([…], time 28 day) was 1.2% and the Fbg ([…], time 28 day) was 217.6 mg/dL. For the same compound, the Hb ([…], time 28 day) was 15.4 g/dL, the Ht ([…], time 28 day) was 45.1% and the Lym ([…], time 28 day) was 77.4%. For the same compound, the MCH ([…], time 28 day) was 19.3 pg, the MCHC ([…], time 28 day) was 34.1% and the MCV ([…], time 28 day) was 56.7 fL. It also gave a Mono ([…], time 28 day) of 5.4%, a Neu ([…], time 28 day) of 15.4% and a PT ([…], time 28 day) of 12 s. The Plat ([…], time 28 day) was 119.3 x10_4/uL, the RBC ([…], time 28 day) was 796.6 x10_4/ul and the Ret ([…], time 28 day) was 2.3%. The WBC ([…], time 28 day) was 105.4 x10_2/uL, the KIDNEY_L ([…], time 7 day) was 1.1 g and the KIDNEY_R ([…], time 7 day) was 1.1 g. The KIDNEY_TOTAL ([…], time 7 day) was 2.2 g, the KIDNEY_L ([…], time 14 day) was 1.2 g and the KIDNEY_R ([…], time 14 day) was 1.2 g. It also gave a KIDNEY_TOTAL ([…], time 14 day) of 2.5 g, a KIDNEY_L ([…], time 28 day) of 1.5 g and a KIDNEY_R ([…], time 28 day) of 1.5 g. The KIDNEY_TOTAL ([…], time 28 day) was 2.9 g, the LIVER ([…], time 7 day) was 12.5 g and the LIVER ([…], time 14 day) was 13.5 g. The LIVER ([…], time 28 day) was 16.7 g, the A/G ([…], time 7 day) was 2.1 and the ALP ([…], time 7 day) was 930 IU/L. For the same compound, the ALT ([…], time 7 day) was 32.8 IU/L, the AST ([…], time 7 day) was 68.4 IU/L and the BUN ([…], time 7 day) was 18.6 mg/dL. For the same compound, the CRE ([…], time 7 day) was 0.5 mg/dL, the Ca ([…], time 7 day) was 10.9 mg/dL and the Cl ([…], time 7 day) was 104.8 meq/L. It also gave a DBIL ([…], time 7 day) of 0 mg/dL, a GLC ([…], time 7 day) of 214.2 mg/dL and an IP ([…], time 7 day) of 7.2 mg/dL. It also gave a K ([…], time 7 day) of 4.5 meq/L, an LDH ([…], time 7 day) of 94.4 IU/L and a Na ([…], time 7 day) of 142 meq/L. The PL ([…], time 7 day) was 145.4 mg/dL, the RALB ([…], time 7 day) was 3.9 g/dL and the TBIL ([…], time 7 day) was 0.4 mg/dL. The TC ([…], time 7 day) was 72 mg/dL, the TG ([…], time 7 day) was 114.6 mg/dL and the TP ([…], time 7 day) was 5.7 g/dL. The gamma-GTP ([…], time 7 day) was 0.8 IU/L, the A/G ([…], time 14 day) was 1.7 and the ALP ([…], time 14 day) was 683.4 IU/L. For the same compound, the ALT ([…], time 14 day) was 31.6 IU/L, the AST ([…], time 14 day) was 62.6 IU/L and the BUN ([…], time 14 day) was 18.4 mg/dL. It also gave a CRE ([…], time 14 day) of 0.5 mg/dL, a Ca ([…], time 14 day) of 10.5 mg/dL and a Cl ([…], time 14 day) of 105.8 meq/L. The DBIL ([…], time 14 day) was 0.03 mg/dL, the GLC ([…], time 14 day) was 185.4 mg/dL and the IP ([…], time 14 day) was 6.9 mg/dL. For the same compound, the K ([…], time 14 day) was 4.6 meq/L, the LDH ([…], time 14 day) was 131.8 IU/L and the Na ([…], time 14 day) was 140.8 meq/L. For the same compound, the PL ([…], time 14 day) was 154.2 mg/dL, the RALB ([…], time 14 day) was 3.8 g/dL and the TBIL ([…], time 14 day) was 0.3 mg/dL. For the same compound, the TC ([…], time 14 day) was 73.2 mg/dL, the TG ([…], time 14 day) was 125.8 mg/dL and the TP ([…], time 14 day) was 6 g/dL. For the same compound, the gamma-GTP ([…], time 14 day) was 1.4 IU/L, the A/G ([…], time 28 day) was 1.5 and the ALP ([…], time 28 day) was 780.4 IU/L. It also gave an ALT ([…], time 28 day) of 30.4 IU/L, an AST ([…], time 28 day) of 62.4 IU/L and a BUN ([…], time 28 day) of 17.6 mg/dL. The CRE ([…], time 28 day) was 0.5 mg/dL, the Ca ([…], time 28 day) was 10 mg/dL and the Cl ([…], time 28 day) was 104.2 meq/L. For the same compound, the DBIL ([…], time 28 day) was 0.006 mg/dL, the GLC ([…], time 28 day) was 192.2 mg/dL and the IP ([…], time 28 day) was 6 mg/dL. The K ([…], time 28 day) was 4.4 meq/L, the LDH ([…], time 28 day) was 90 IU/L and the Na ([…], time 28 day) was 139.6 meq/L. For the same compound, the PL ([…], time 28 day) was 147.6 mg/dL, the RALB ([…], time 28 day) was 3.7 g/dL and the TBIL ([…], time 28 day) was 0.3 mg/dL. For the same compound, the TC ([…], time 28 day) was 68.2 mg/dL, the TG ([…], time 28 day) was 169 mg/dL and the TP ([…], time 28 day) was 6.3 g/dL. For the same compound, the gamma-GTP ([…], time 28 day) was 1.6 IU/L.
